Data reported in patent publication US20250241901A1, “ACTIVATION OF MNRR1 / CHCHD2 AS A THERAPEUTIC TARGET FOR MITOCHONDRIA ASSOCIATED DISORDERS” (Wayne State University, priority 2024, published 2025).

Legend:
[1] = system: MNRR1; assay: MNRR1 immunoblot in several other human cell lines; type: cell-based; details: 10 μM, 24 h
Method: FIGS. 5A-5E: FIG. 5A: Venn diagram showing activators identified in HEK293 and MDA-MB-468 cells. FIG. 5B: Equal amounts of MELAS cells treated with Vehicle (DMSO) or various MNRR1 activating compounds (10 μM) for 24 h were separated on an SDS-PAGE gel and probed for MNRR1 levels. Actin was probed as a loading control and numbers below represent an average and standard deviation (SD) of two biological replicates. FIGS. 5C-5E: Equal amounts of cell lysates from various cell lines treated with vehicle (DMSO) or tizoxanide (10 μM) for 24 h were separated on an SDS-PAGE gel and probed for MNRR1 plus loading controls GAPDH or tubulin.
Immunoblotting: Immunoblotting was performed as described previously. Cell lysates for immunoblotting were prepared using RIPA buffer (Abcam, Waltham, MA) and included a protease and phosphatase inhibitor cocktail (Sigma, St. Louis, MO). Total protein extracts were obtained by centrifugation at 21,000×g for 30 min at 4° C. The clear supernatants were transferred to new tubes and quantified using the Bradford reagent with BSA as standard (BioRad, Hercules. CA). […] For detection after immunoblotting, the SuperSignal™ West Pico PLUS substrate (ThermoFisher, Waltham, MA) was used to generate chemiluminescence signal, which was detected with X-Ray film (RadTech, Vassar, MI).

[2] = system: MELAS patient fibroblasts; assay: Heteroplasmy in MELAS patient fibroblasts; type: cell-based, human; details: low heteroplasmy levels (<50%)
Method: Restriction Enzyme Digestion: DNA was analyzed for the MELAS mutation as described previously. The A→G mutation creates a new Haelll site at position 3243 that can be amplified by PCR using primers corresponding to the light-strand positions 3116 to 3134 and to the heavy-strand positions 3353 to 3333. Equal amounts of the resulting products were digested with the restriction enzyme Haelll (New England Biolabs) and electrophoresed on a 2.5% agarose gel.

[3] = system: MNRR1; assay: MNRR1 immunofluorescence in MDAMB468 cells; type: cell-based, human; details: MDAMB468, 10 μM, 24 h
Method: FIGS. 4A-4B: High throughput screen to identify MNRR1 activators. FIG. 4A: Campaign view representing compounds that activate MNRR1. Control levels are represented as a dotted line. Each compounds is shown as a small dot and nitazoxanide is highlighted as a large dot. FIG. 4B: MDAMB468 cells treated with Vehicle (DMSO) or nitazoxanide (10 μM) for 24 h were immunostained (MNRR1=orange, DAPI=blue) and imaged at 63λ using a confocal microscope. The scale bar represents 200 μm.
Immunofluorescence: Cells plated on glass cover slips were fixed with 3.7% formaldehyde (prepared in 1× PBS) at room temperature for 15 min, followed by permeabilization with 0.15% Triton X-100 (prepared in distilled water) for 2 min, and then blocked with 5% bovine serum albumin (BSA) (prepared in 1× PBS, 0.1% TWEEN-20 (PBST)) for 1 h at room temperature. Cells were washed with PBST then incubated for 1 h at room temperature in primary antibody solution containing Coralite® 594 conjugated mouse monoclonal anti-CHCHD2 IgG (1:100, Proteintech, Cat. No. CL594-66302) prepared in PBST. Cells were washed 3 times with PBST for 5 min each and mounted with Vectashield vibrance with DAPI (Cat. #H-1800-10, Vector Labs, Newark, CA). […] Corrected total fluorescence for each field to determine MNRR1 content was calculated using FIJI (National Institutes of Health).

[4] = system: TNF transcription; assay: TNF transcript levels in LPS-treated HTR8 cells (real-time PCR); type: cell-based, human
Method: FIGS. 1A-1D. Nitazoxanide's anti-inflammatory effects are via transcriptional activation of MNRR1. (FIG. 1A) Results of a screen of ˜2400 FDA-approved drugs and natural compounds identified to transcriptionally activate (>1), inhibit (<1), or not affect (=1) MNRR1. Each circle represents one drug and the MNRR1 activator (nitazoxanide (N)) has been highlighted in green. (FIG. 1B) Equal numbers of HTR cells overexpressing the MNRR1-luciferase reporter were plated on a 96 well plate and treated with increasing amounts of nitazoxanide or vehicle (DMSO) for 24 h. EC50 was calculated using the activation of MNRR1 reporter relative to vehicle treated cells using the Quest Graph^TM EC50 Calculator. (FIG. 1C) TNF transcript levels were measured in human placental cells. Actin was used as a housekeeping gene for normalization. Abbreviations: WT, MNRR1-WT; MNRR1-KO, knockout of MNRR1; C, control (water); LPS, lipopolysaccharide; N, nitazoxanide; KO+WT-MNRR1, knockout cells +MNRR1−WT overexpression. n=4 biological replicates; significance: *, p-value<0.05; ns is non-significant. […]
Real-time polymerase chain reaction: Total cellular RNA was extracted from mouse placental tissues or HTR8 cells by using a RNeasy Plus Mini Kit (Qiagen, Germantown, MD, USA), according to the manufacturer's instructions. […] Transcript levels were measured by real-time PCR by using SYBR green on an ABI 7500 system. […]

[5] = in cells; cited from earlier work
[6] = Clinical use of nitazoxanide in adult humans; type: in vivo, human; details: 500 mg (per adult) twice a day

Row | SMILES | MNRR1 level [1] | shift of heteroplasmy [2] | MNRR1 level [3] | LPS-induced activation of TNF transcription ([4]; HTR8 cells, MNRR1-WT) | anti-inflammatory benefit (TNF transcript) in MNRR1 knockout cells ([4]; MNRR1 knockout cells) | fraction metabolized to tizoxanide [5] | drug concentration in the blood [6]
1 | O=C(Nc1ncc([N+](=O)[O-])s1)c1ccccc1O [tizoxanide, Tizoxanide] | increase of MNRR1 | do not show a shift of heteroplasmy |  |  |  |  | 
2 | CC(=O)Oc1ccccc1C(=O)Nc1ncc([N+](=O)[O-])s1 [nitazoxanide, Nitazoxanide] |  |  | increase of MNRR1 | reduced to control levels in an MNRR1-dependent fashion | no nitazoxanide-mediated benefit | > 97% | around 600 micromolar
